Data from paper PMC7583350 (Journal of medicinal chemistry, 2018).
“Also recorded” adds a separate entry of the source.

Experiments:
[1] = system: MIA PaCa-2 cells; experiment: Co-treatment with gemcitabine, MIA PaCa-2 pancreatic cancer cells; assay type: cell-based, human; conditions: GEM-sensitive, 15 μM IAP inhibitor, 24 hrs co-treatment
[2] = system: BxPC3 cells; experiment: Co-treatment with gemcitabine, BxPC3 pancreatic cancer cells; assay type: cell-based, human; conditions: 15 μM IAP inhibitor, 24 hrs co-treatment
[3] = system: PANC-1 cells; experiment: Co-treatment with gemcitabine, PANC-1 pancreatic cancer cells; assay type: cell-based, human; conditions: GEM-resistant, 15 μM IAP inhibitor, 24 hrs co-treatment
[4] = biological target: BIR2 domain of XIAP (Homo sapiens, UniProt P98170); experiment: DELFIA assay, BIR2 domain of XIAP; assay type: binding; conditions: supplementary Table S1
Chain of BIR2 domain of XIAP (P98170 152-236 limits assumed): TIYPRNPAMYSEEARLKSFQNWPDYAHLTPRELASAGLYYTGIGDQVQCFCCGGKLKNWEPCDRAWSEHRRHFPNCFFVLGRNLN

[5] = system: MOLT-4 cells; experiment: Cell viability of MOLT-4 cells; assay type: cell-based, human; conditions: MOLT-4, 48 hrs
[6] = system: H929 cells; experiment: MTS assay, multiple myeloma cell line H929; assay type: cell-based, human; conditions: LCL161-sensitive MM cell line, 48 hr, 20 μM
[7] = system: L363 cells; experiment: MTS assay, multiple myeloma cell line L363; assay type: cell-based, human; conditions: LCL161-sensitive MM cell line, 48 hr, 20 μM
[8] = system: MOLT-4 cells; conditions: cited from earlier work

| SMILES | Effect in combination with gemcitabine, MIA PaCa-2 [1] | Effect in combination with gemcitabine, BxPC3 [2] | Effect in combination with gemcitabine, PANC-1 [3] | Affinity for the BIR2 domain of XIAP [4] | Activity in cell viability assay [5] | Growth inhibition H929 [6] | Growth inhibition L363 [7] | Sensitivity of MOLT-4 cell line [8] |
| --- | --- | --- | --- | --- | --- | --- | --- | --- |
| CN[C@@H](C)C(=O)N[C@@H](Cc1cc(C)c(C(F)(F)F)cc1F)C(=O)N1CCC[C@H]1C(=O)N[C@@H]1CCc2c(F)cccc21 [Compound 31] | modest significant additive effect | significantly restore growth inhibition by gemcitabine; also recorded: significant synergism | significantly restore growth inhibition by gemcitabine; also recorded: significant synergism |  |  |  |  |  |
| CN[C@@H](C)C(=O)N[C@H](C(=O)N1CCC[C@H]1c1nc(C(=O)c2ccc(F)cc2)cs1)C1CCCCC1 [LCL161] |  | significantly restore growth inhibition by gemcitabine | significantly restore growth inhibition by gemcitabine | only modest affinity | not particularly active; also recorded: less potent than both compound 34 and compound 31 | particularly active | particularly active | insensitive |
